This note sets out measurements from ChEMBL document CHEMBL1201862, “PubChem BioAssay data set” (2004).

What all share (test): DTP human tumour cell line panel, 48 h
The test system of test [1] is DU-145.
Test [2] deals with SNB-75.
Test [3] has as its system HCT-15.
Test [4] deals with TK-10.
Test [5] deals with OVCAR-5.
In test [6] the test system is A498.
Test [7] concerns NCI-H522.
The test system of test [8] is UACC-62.
Test [9] relates to UACC-257.
The test system of test [10] is OVCAR-4.
The subject of test [11] is OVCAR-8.
Test [12] concerns UO-31.
Test [13] relates to U-251.
Test [14] concerns HOP-92.
Test [15] deals with HCT-116.
Test [16] concerns SNB-19.
The subject of test [17] is NCI-H23.
For test [18], the system named is SK-MEL-28.
The test system of test [19] is MDA-N.

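Interpolation was linear, between the two tested concentrations surrounding the appropriate level; five concentrations were tested over 48 hours in 96-well plates. GI50: concentration for 50% inhibition of growth.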 Active and inactive are the calls of the source. Rule as the data show it: active = GI50 up to about 1.1 µM and inactive = higher. A value given as a limit tells only on which side of the number the result lay.

For the compound `CCCc1cn2c(/C=N/NC(=N)N)c(-c3ccc([N+](=O)[O-])cc3)nc2s1`, the GI50 (in general, the concentration giving 50% growth inhibition) in [1] is 1.77 µM (inactive); in [2], 1.8 µM (inactive); in test [3] it was 1.36 µM; in test [4] it was 1.81 µM (inactive); in test [5], 1.71 µM (inactive); in test [6], 5.26 µM (inactive). In addition, the GI50 was 2.08 µM (inactive) in [7]; 1.82 µM (inactive) in test [8]; 1.73 µM (inactive) in test [9]; 1.06 µM (active) in test [10]; 1.9 µM (inactive) in test [11]; 1.91 µM (inactive) in [12]. The 50% growth inhibitory concentration (GI50) was 0.769 µM (active) in test [13]; 6.01 µM (inactive) in test [14]; 0.377 µM (active) in test [15]; 1.71 µM (inactive) in test [16]; 1.61 µM (inactive) in test [17]; 1.85 µM (inactive) in test [18].

Regarding `NC(=O)N/N=C(\CC1OC(=O)c2ccccc21)c1ccc([N+](=O)[O-])cc1` (configuration not stated), the GI50 is 27.1 µM (inactive) in test [2]; 24.5 µM in test [3]; > 100 µM (inactive) in [4]; 82 µM (inactive) in [6]; 18.4 µM (inactive) in test [8]; 67.3 µM (inactive) in test [9]. Moreover, the GI50 in test [10] was 39.5 µM (inactive); in [11] it was > 10 µM (inactive); in test [12], 76.6 µM (inactive); in test [13], 17.5 µM (inactive); in [15] it was 28.7 µM (inactive); in [16] it was 20.7 µM (inactive).

As to `Cc1cc(C)c2c(c1)CC1(Cc3cc(C)c(C)cc3C1=O)C2=O` (configuration not stated), the GI50 in [1] is > 100 µM (inactive); in test [2] it was > 100 µM (inactive); in test [3], greater than 100 µM; in test [4], > 100 µM (inactive); in test [5], 48.1 µM (inactive); in test [6], > 100 µM (inactive). In addition, the GI50 in [7] is > 100 µM (inactive); in test [8], > 100 µM (inactive); in test [9], > 100 µM (inactive); in [10], 77.8 µM (inactive); in test [11] it was > 100 µM (inactive); in [12] it was > 100 µM (inactive). Further, the GI50 in test [13] was > 100 µM (inactive); in test [14], 60.5 µM (inactive); in [16], > 100 µM (inactive); in test [18], > 100 µM (inactive).

Consider `Fc1c(F)c(C(F)(F)F)c(F)c(F)c1N/N=C/c1cn(Cc2ccccc2)c2ccccc12`, for which the GI50 in test [1] is 29.2 µM (inactive); in test [2], 20 µM (inactive); in test [3], 25.2 µM; in test [4], 25.2 µM (inactive); in test [5], 19.2 µM (inactive); in [6] it was 27.9 µM (inactive). The GI50 in [7] was 23.7 µM (inactive); in test [8] it was 22.4 µM (inactive); in [9], 21.5 µM (inactive); in [10], 23.4 µM (inactive); in [11], 36.6 µM (inactive); in [12], 23.4 µM (inactive). The GI50 in test [13] was 34 µM (inactive); in test [14] it was 24 µM (inactive); in test [15] it was 23.1 µM (inactive); in test [16], 30.1 µM (inactive); in test [17] it was 27.5 µM (inactive); in test [18], 34.8 µM (inactive).

With `O=C(CSCC(=O)N/N=C/c1cccc(O)c1)N/N=C/c1cccc(O)c1`, the GI50 in test [1] is > 100 µM (inactive); in test [2], > 100 µM (inactive); in test [3], greater than 100 µM; in test [4], > 100 µM (inactive); in test [5] it was > 100 µM (inactive); in test [6] it was > 100 µM (inactive). For the same compound, the GI50 in test [7], in test [8], in test [9], in test [10], in test [11] and in test [12] was > 100 µM (inactive) in each case. Moreover, the GI50 in test [13], in test [14], in [15], in test [16], in [17] and in [18] was > 100 µM (inactive) in each case.

Consider `CNC(=O)NCCN1N=C(C)/C(=C\c2ccccc2)CC1=O`, for which the GI50 in test [2] was 29 µM (inactive); in test [4] it was > 100 µM (inactive); in test [5] it was > 100 µM (inactive); in test [6] it was > 100 µM (inactive); in test [7], > 100 µM (inactive); in test [8] it was > 100 µM (inactive). In addition, the GI50 in [9], in [10], in test [11], in [12], in test [13] and in [14] was > 100 µM (inactive) in each case. The GI50 in test [15], in test [16], in [17] and in test [18] was > 100 µM (inactive) throughout.

On to `Cc1cc(=O)c2cc(/N=C/c3ccc([N+](=O)[O-])o3)ccc2o1`, for which the GI50 was > 100 µM (inactive) in test [1]; > 100 µM (inactive) in [2]; 88.3 µM in test [3]; > 100 µM (inactive) in [4]; > 100 µM (inactive) in [5]; > 100 µM (inactive) in [6]. For the same compound, the GI50 in test [7] is 64.6 µM (inactive); in test [8], 56.1 µM (inactive); in test [9], 28.1 µM (inactive); in [10], > 100 µM (inactive); in [12], > 100 µM (inactive); in test [13], > 100 µM (inactive). Besides, the GI50 in test [14] is > 100 µM (inactive); in [15], 32.5 µM (inactive); in test [16] it was > 100 µM (inactive); in test [17], > 100 µM (inactive); in test [18], > 100 µM (inactive).

In the case of `CNC(=O)c1cc2nc3ccccc3c(=O)n2c2ccccc12`, the GI50 was > 10 µM (inactive) in test [1]; greater than 10 µM in test [3]; > 10 µM (inactive) in test [4]; > 10 µM (inactive) in test [5]; > 10 µM (inactive) in [6]; > 10 µM (inactive) in [7]. Further, the GI50 in test [8], in test [9], in test [10], in test [11], in test [12] and in test [13] was > 10 µM (inactive) in each case. In addition, the GI50 in test [14], in test [15], in test [16], in test [17] and in [18] was > 10 µM (inactive) in each case.

As for `CCOC(=O)CC(=O)C(=O)NN=C1NCCN1`, the GI50 was > 100 µM (inactive) in [1]; > 100 µM (inactive) in test [19]; > 100 µM (inactive) in test [2]; greater than 100 µM in test [3]; > 100 µM (inactive) in test [4]; > 100 µM (inactive) in test [5]. Besides, the GI50 in test [7], in test [8], in test [9], in test [10], in test [11] and in test [12] was > 100 µM (inactive) throughout. Besides, the GI50 in test [13], in test [14], in [15], in test [16], in test [17] and in [18] was > 100 µM (inactive) each time.

With `CN1CCN(C(=S)N(C(=O)c2ccco2)c2ccccc2)CC1`, the GI50 is > 100 µM (inactive) in [1]; > 100 µM (inactive) in test [19]; > 100 µM (inactive) in test [2]; greater than 100 µM in test [3]; > 100 µM (inactive) in [4]; > 100 µM (inactive) in test [5]. In addition, the GI50 in test [7], in test [8], in test [9], in [10], in [11] and in test [12] was > 100 µM (inactive) each time. Further, the GI50 in test [13], in [14], in test [16], in test [17] and in test [18] was > 100 µM (inactive) each time.

As for `CC12CCC(CC1(Cl)Cl)C2` (configuration not stated), the GI50 in test [2] is > 100 µM (inactive); in [3], greater than 100 µM; in [4], > 100 µM (inactive); in [5], > 100 µM (inactive); in test [7] it was > 100 µM (inactive); in test [8] it was > 100 µM (inactive). In addition, the GI50 in test [9], in test [10], in test [11], in [12], in test [13] and in test [14] was > 100 µM (inactive) each time. For the same compound, the GI50 in [16], in [17] and in test [18] was > 100 µM (inactive) in each case.

In the case of `CCCCCCNc1n[nH]c(=O)c2c1nnn2Cc1ccccc1`, the GI50 in test [1] is > 100 µM (inactive); in test [19] it was > 100 µM (inactive); in [3], greater than 100 µM; in test [4], > 100 µM (inactive); in [5], > 100 µM (inactive); in test [9], > 100 µM (inactive). Moreover, the GI50 is > 100 µM (inactive) in test [10]; > 100 µM (inactive) in [11]; > 100 µM (inactive) in test [12]; > 100 µM (inactive) in [13]; 86.9 µM (inactive) in test [14]; > 100 µM (inactive) in [15]. Moreover, the GI50 in test [16], in test [17] and in test [18] was > 100 µM (inactive) each time.
